Assay results taken from US20260217679A1, “CANCER TREATING COMPOUNDS” (UNIVERSITY OF BRADFORD, priority 2023, published 2026).
Read-outs that look alike come from different tables or passages of the source.

Legend:
JR1 = assay: Anti-proliferative activity in RMS cell lines, MTT assay; format: cell-based; settings: read-out: IC50 JR1
Method: (§1) Briefly, […] of a cell suspension (~2000 cells/well) was added in fresh, sterile 96-well plates. Afterwards, rhabdomyosarcoma (RMS) cell lines (RH30, RH41 and JR1) were incubated for 24 h at 37° C., 5% CO2 to allow cellular attachment on the surface of the wells. On the next day after cell seeding, cells were treated with the duocarmycin compounds. 20 μL of drug dilution was added into the wells, making up a final volume of 200 μL/well. In untreated control wells, 20 μL of fresh medium was added instead (0.1% DMSO). Duocarmycin stock concentrations were prepared in DMSO; the concentration of the latter in the wells containing the medium and cells never exceeded 0.1% (v/v). The concentrations tested ranged from 100 μM to 1 pM depending on the IC50 of each compound from preliminary screening. Each experiment was tested at least in triplicate, and antiproliferative activity was determined after 96 hours using a standard MTT (3-(4,5-dimethylthiazol-2-yl)-2,5-diphenyltetrazolium bromide) assay.

RH30 = assay: as above; format: cell-based; settings: read-out: IC50 RH30
Method: as §1

RH41 = assay: as above; format: cell-based; settings: Homo sapiens, read-out: IC50 RH41
Method: as §1

[1] = system: H2AX phosphorylation in MDA-MB-231; assay: H2AX phosphorylation Western Blot as marker of double-stranded DNA damage; format: cell-based, human; settings: MDA-MB-231, Western Blot, FIG. 1
From the text: The mechanism of action of the naturally occurring duocarmycins is well documented and involves spirocyclization of the seco-duocamycins including those derived from the CBI and other aryl-ring-fused subunits of the duocarmycin alkylating subunit.

MDA-MB-231 = assay: Growth inhibition of MDA-MB-231 (triple-negative) breast cancer cell line; format: cell-based; settings: Homo sapiens
Method: (§2) The compounds of the present invention were evaluated for their ability to inhibit the growth of MDA-MB-231 (triple-negative) and MCF-7 (oestrogen receptor positive) breast cancer cell lines. A positive control (PC), seco-CBI-MI, with structure shown below, was used as a baseline for comparison of the efficacy of the compounds of the present invention.

MCF-7 = assay: Growth inhibition of MCF-7 (oestrogen receptor positive) breast cancer cell line; format: cell-based; settings: Homo sapiens
Method: as §2

[2] = MDA-MB-231, read-out: IC50 MDA MB 231
[3] = MDA-MB-231 growth inhibition, read-out: IC50 MDA MB 231
[4] = MCF7, MCF-7 growth inhibition, read-out: IC50 MCF7

For `COc1ccc2[nH]c(C(=O)N3CC(CCl)c4c3cc(O)c3ccccc43)cc2c1` (centres unmarked) [DP31], the IC50 (JR1; JR1, 96 hours, MTT) was 0.243 ± 0.308 nM, the IC50 (RH30; RH30, 96 hours, MTT) was 0.0861 ± 0.0248 nM and the IC50 (RH41; RH41, 96 hours, MTT) was 0.0368 ± 0.0316 nM. For the same compound, the “DNA damage measured using H2AX phosphorylation” value (shortened to “DNA damage measured”) [1] was “generated DNA damage”.

Work on `COc1ccc2[nH]c(C(=O)N3CC(CCl)c4c3cc(-c3ccc(O)cc3)c3ccccc43)cc2c1` (centres unmarked) [DP36] yielded an IC50 (MDA-MB-231; [2]) of 23.3 ± 9.9 nM, an IC50 (MCF-7; MCF7, read-out: IC50 MCF7) of 20 ± 27.1 nM and an IC50 (JR1; 96 h) of 7.28 ± 6.1 nM. The IC50 (RH30; Rh30, 96 h) was 6.69 ± 4.33 nM, the IC50 (RH41; Rh41, 96 h) was 24.9 ± 34 nM and the “DNA damage measured” value [1] was “generated DNA damage”.

For `O=C(c1cc2cc(O)ccc2[nH]1)N1CC(CCl)c2c1cc(OCc1ccccc1)c1ccccc21` (centres unmarked) [DP40], the IC50 (MDA-MB-231; [3]) was 2200 ± 200 nM, the IC50 (MCF-7; [4]) was 1300 ± 100 nM and the IC50 (JR1; JR1, 96 hours, MTT) was 1400 ± 1240 nM. For the same compound, the IC50 (RH30; RH30, 96 hours, MTT) was 227 ± 307 nM and the IC50 (RH41; RH41, 96 hours, MTT) was 530 ± 514 nM.

With `C#CCCC(=O)Oc1ccc2[nH]c(C(=O)N3CC(CCl)c4c3cc(OCc3ccccc3)c3ccccc43)cc2c1` (centres unmarked) [DP42] the IC50 (MDA-MB-231; [2]) was 3200 ± 2900 nM, the IC50 (JR1; 96 h) was 278 ± 156 nM and the IC50 (RH30; Rh30, 96 h) was 81.5 ± 77.3 nM. The IC50 (RH41; Rh41, 96 h) was 378 ± 209 nM.

For `COc1ccc2[nH]c(C(=O)N3CC(CCl)c4c3cc(-c3ccc(CO)cc3)c3ccccc43)cc2c1` (centres unmarked) [DP44], the IC50 (MDA-MB-231; [2]) was 5400 ± 5800 nM, the IC50 (MCF-7; MCF7, read-out: IC50 MCF7) was 4800 ± 4800 nM and the IC50 (JR1; 96 h) was 4860 ± 4780 nM. For the same compound, the IC50 (RH30; Rh30, 96 h) was 2190 ± 3100 nM and the IC50 (RH41; Rh41, 96 h) was 2800 ± 1960 nM.

For `COc1ccc2[nH]c(C(=O)N3CC(CCl)c4c3cc(-c3ccc(C)cc3)c3ccccc43)cc2c1` (centres unmarked) [DP45], the IC50 (MDA-MB-231; [2]) was over 10000 nM, the IC50 (MCF-7; MCF7, read-out: IC50 MCF7) was over 10000 nM and the IC50 (JR1; 96 h) was 32900 ± 29100 nM. For the same compound, the IC50 (RH30; Rh30, 96 h) was 56700 ± 37600 nM, the IC50 (RH41; Rh41, 96 h) was 68000 ± 50700 nM and the “DNA damage measured” value [1] was “generated DNA damage”.

`COc1ccc2[nH]c(C(=O)N3CC(CCl)c4c3cc(-c3cccc(O)c3)c3ccccc43)cc2c1` (centres unmarked) [DP47] was tested, and the IC50 (MDA-MB-231; [2]) was 206 ± 79.6 nM, the IC50 (MCF-7; MCF7, read-out: IC50 MCF7) was 104 ± 79.8 nM and the IC50 (JR1; 96 h) was 59.2 ± 27.2 nM. The IC50 (RH30; Rh30, 96 h) was 60.3 ± 49.1 nM, the IC50 (RH41; Rh41, 96 h) was 19.2 ± 20.9 nM and the “DNA damage measured” value [1] was “generated DNA damage”.

Compound `COc1ccc2[nH]c(C(=O)N3CC(CCl)c4c3cc(-c3ccc(N)cc3)c3ccccc43)cc2c1` (centres unmarked) [DP48] has an IC50 (MDA-MB-231; [2]) of 911 nM, an IC50 (MCF-7; MCF7, read-out: IC50 MCF7) of 713 nM and an IC50 (JR1; 96 h) of 5170 ± 4280 nM. The IC50 (RH30; Rh30, 96 h) was 355 ± 352 nM and the IC50 (RH41; Rh41, 96 h) was 581 ± 648 nM.

`C#CCCCC(=O)Oc1ccc2[nH]c(C(=O)N3CC(CCl)c4c3cc(OCc3ccccc3)c3ccccc43)cc2c1` (centres unmarked) [DP51] showed an IC50 (MDA-MB-231; [2]) of over 10000 nM, an IC50 (JR1; 96 h) of 18500 ± 9640 nM and an IC50 (RH30; Rh30, 96 h) of 1220 ± 830 nM. The IC50 (RH41; Rh41, 96 h) was 2510 ± 1160 nM.

Work on `COc1ccc(Nc2cc3c(c4ccccc24)C(CCl)CN3C(=O)c2cc3cc(OC)ccc3[nH]2)cc1` (centres unmarked) [DP59] yielded an IC50 (MDA-MB-231; [3]) of 7.6 ± 2.1 nM, an IC50 (MCF-7; [4]) of 2.5 ± 0.7 nM and an IC50 (JR1; JR1, 96 hours, MTT) of 1.33 ± 1.93 nM. The IC50 (RH30; RH30, 96 hours, MTT) was 0.376 ± 0.157 nM, the IC50 (RH41; RH41, 96 hours, MTT) was 0.298 ± 0.154 nM and the “DNA damage measured” value [1] was “generated DNA damage”.

With `CCCCNc1cc2c(c3ccccc13)C(CCl)CN2C(=O)c1cc2cc(OC)ccc2[nH]1` (centres unmarked) [DP63] the IC50 (MDA-MB-231; [3]) was 1.7 ± 1.4 nM, the IC50 (MCF-7; [4]) was 0.8 ± 0.3 nM and the IC50 (JR1; JR1, 96 hours, MTT) was 0.217 ± 0.287 nM. For the same compound, the IC50 (RH30; RH30, 96 hours, MTT) was 0.101 ± 0.048 nM and the IC50 (RH41; RH41, 96 hours, MTT) was 0.0204 ± 0.0114 nM.
